Results from ChEMBL document CHEMBL1177642, “Synthesis and antibacterial studies of binaphthyl-based tripeptoids. Part 2” (2010).
In brackets after ≈: the same amount, converted by molar mass.

Key:
Format in all cases: functional
Enterococcus faecium [1] = assay: Antimicrobial activity against vancomycin-resistant Enterococcus faecium 449 after overnight incubation
Enterococcus faecium [2] = assay: Antimicrobial activity against vancomycin-resistant Enterococcus faecium 987 after overnight incubation
Staphylococcus aureus = assay: Antimicrobial activity against methicillin-resistant Staphylococcus aureus ATCC 43300 after overnight incubation
Enterococcus faecium [3] = assay: Antimicrobial activity against vancomycin-resistant Enterococcus faecium 820 after overnight incubation
Enterococcus faecium [4] = assay: Antimicrobial activity against vancomycin-resistant Enterococcus faecium 243 after overnight incubation

SMILES | MIC50 (Enterococcus faecium [1]) [µg/mL] | MIC50 (Enterococcus faecium [2]) [µg/mL] | MIC50 (Staphylococcus aureus) [µg/mL] | MIC50 (Enterococcus faecium [3]) [µg/mL] | MIC50 (Enterococcus faecium [4]) [µg/mL]
C=CCOc1ccc2ccccc2c1-c1c(OCC(=O)N[C@H](CCCCN)C(=O)N[C@H](CCCNC(=N)N)C(=O)N[C@@H](CC=C)C(=O)OCc2ccccc2)ccc2ccccc12.Cl.Cl | 31.3 | 31.3 | 1.96 | 31.3 | 31.3
C=CC[C@H](NC(=O)[C@@H](CCCNC(=N)N)NC(=O)[C@@H](CCCCN)NC(=O)COc1ccc2ccccc2c1-c1c(OCc2ccccc2)ccc2ccccc12)C(=O)OCc1ccccc1.Cl.Cl | 62.5 | 125 | 3.9 | 62.5 | 62.5
C=CC[C@H](NC(=O)[C@@H](CCCNC(=N)N)NC(=O)[C@@H](CCCCN)NC(=O)COc1ccc2ccccc2c1-c1c(OC)ccc2ccccc12)C(=O)OCc1ccccc1.Cl.Cl | 62.5 | 125 | 7.8 | 62.5 | 125
C=CC[C@H](NC(=O)[C@@H](CCCNC(=N)N)NC(=O)[C@@H](CCCCN)NC(=O)COc1ccc2ccccc2c1-c1c(OCCCCC)ccc2ccccc12)C(=O)OCc1ccccc1.Cl.Cl | 62.5 | 62.5 | 3.9 | 31.3 | 62.5
C=CC[C@H](NC(=O)[C@@H](CCCNC(=N)N)NC(=O)[C@@H](CCCCN)NC(=O)COc1ccc2ccccc2c1-c1c(OCC(C)C)ccc2ccccc12)C(=O)OCc1ccccc1.Cl.Cl | 52.1 | 62.5 | 1.95 | 31.3 | 62.5
C=CC[C@H](NC(=O)[C@@H](CCCNC(=N)N)NC(=O)[C@@H](CCCCN)NC(=O)COc1ccc2ccccc2c1-c1c(OCC(C)(C)C)ccc2ccccc12)C(=O)OCc1ccccc1.Cl.Cl | 62.5 | 83.3 | 3.9 | 31.3 | 62.5
C=CC[C@H](NC(=O)[C@@H](CCCNC(=N)N)NC(=O)[C@@H](CCCCN)NC(=O)COc1ccc2ccccc2c1-c1c(OCC2CCCCC2)ccc2ccccc12)C(=O)OCc1ccccc1.Cl.Cl | 62.5 | 62.5 | 3.9 | 31.3 | 62.5
C[C@H](NC(=O)[C@@H](CCCNC(=N)N)NC(=O)[C@@H](CCCCN)NC(=O)COc1ccc2ccccc2c1-c1c(O)ccc2ccccc12)C(=O)OCc1ccccc1.Cl.Cl | 52.1 | 125 | 7.8 | 62.5 | 125
C=CC[C@H](NC(=O)[C@@H](CCCNC(=N)N)NC(=O)[C@@H](CCCCN)NC(=O)COc1ccc2ccccc2c1-c1c(OCCCc2ccccc2)ccc2ccccc12)C(=O)OCc1ccccc1.Cl.Cl | 31.3 | 62.5 | 3.9 | 31.3 | 62.5
CCCCCCCCOc1ccc2ccccc2c1-c1c(OCC(=O)N[C@H](CCCCN)C(=O)N[C@H](CCCNC(=N)N)C(=O)N[C@@H](CC(C)C)C(=O)OCc2ccccc2)ccc2ccccc12.Cl.Cl | 125 | 125 | 13 | 62.5 | 125
CC(C)CCOc1ccc2ccccc2c1-c1c(OCC(=O)N[C@H](CCCCN)C(=O)N[C@H](CCCNC(=N)N)C(=O)N[C@@H](CC(C)C)C(=O)Oc2ccccc2)ccc2ccccc12.Cl.Cl | 15.6 | 15.6 | 3.9 | 7.8 | 15.6
CC(C)CCOc1ccccc1-c1ccccc1OCC(=O)N[C@H](CCCCN)C(=O)N[C@H](CCCNC(=N)N)C(=O)N[C@@H](CC(C)C)C(=O)OCc1ccccc1.Cl.Cl | 31.3 | 31.3 | 1.95 | 31.3 | 31.3
C=CCOc1ccc2ccccc2c1-c1c(OCC(=O)OCC)ccc2ccccc12 | 31.3 (≈ 75.9 µM) | 62.5 (≈ 152 µM) | 3.9 (≈ 9.45 µM) | 31.3 (≈ 75.9 µM) | 31.3 (≈ 75.9 µM)
C=CC[C@H](NC(=O)[C@@H](CCCNC(=N)N)NC(=O)[C@@H](CCCCN)NC(=O)COc1ccc2ccccc2c1-c1c(OCC2CCC2)ccc2ccccc12)C(=O)OCc1ccccc1.Cl.Cl | 52.1 | 62.5 | 3.9 | 31.3 | 62.5
CC(C)C[C@H](NC(=O)[C@@H](CCCNC(=N)N)NC(=O)[C@@H](CCCCN)NC(=O)COc1ccc2ccccc2c1-c1c(OCC#N)ccc2ccccc12)C(=O)OCc1ccccc1.Cl.Cl | 31.3 | 62.5 | 3.9 | 31.3 | 62.5
CC(C)C[C@H](NC(=O)[C@@H](CCCNC(=N)N)NC(=O)[C@@H](CCCCN)NC(=O)COc1ccc2ccccc2c1-c1c(OCCC2CC2)ccc2ccccc12)C(=O)OCc1ccccc1.Cl.Cl | 31.3 | 62.5 | 3.9 | 62.5 | 125
CC(C)C[C@H](NC(=O)[C@@H](CCCNC(=N)N)NC(=O)[C@@H](CCCCN)NC(=O)COc1ccc2ccccc2c1-c1c(OCCc2ccccc2)ccc2ccccc12)C(=O)OCc1ccccc1.Cl.Cl | 31.3 | 31.3 | 5.2 | 15.6 | 31.3
COCCOc1ccc2ccccc2c1-c1c(OCC(=O)N[C@H](CCCCN)C(=O)N[C@H](CCCNC(=N)N)C(=O)N[C@@H](CC(C)C)C(=O)OCc2ccccc2)ccc2ccccc12.Cl.Cl | 31.3 | 62.5 | 3.9 | 62.5 | 125
CN[C@H](CC(C)C)C(=O)N[C@H]1C(=O)N[C@@H](CC(N)=O)C(=O)N[C@H]2C(=O)N[C@H]3C(=O)N[C@H](C(=O)N[C@H](C(=O)O)c4cc(O)cc(O)c4-c4cc3ccc4O)[C@H](O)c3ccc(c(Cl)c3)Oc3cc2cc(c3O[C@@H]2O[C@H](CO)[C@@H](O)[C@H](O)[C@H]2O[C@H]2C[C@](C)(N)[C@H](O)[C@H](C)O2)Oc2ccc(cc2Cl)[C@H]1O [VANCOMYCIN] | 62.5 (≈ 43.1 µM) | < 0.98 | 1.95 (≈ 1.35 µM) | > 125 | 1.95 (≈ 1.35 µM)
